Results reported in ChEMBL document CHEMBL5649166, “RIP3 induces apoptosis independent of pronecrotic kinase activity” (Mol Cell, 2014).

Columns and labels:
[1] = target: T1, Ephrin type-B receptor 1 (Homo sapiens) (UniProt P54762); assay: Inhibition of human EPHB1 using poly[Glu:Tyr] (4:1) as substrate at 1 uM in presence of 32P-ATP by Hotspot assay relative to control; values are per cent of control
T1 sequence (whole entry): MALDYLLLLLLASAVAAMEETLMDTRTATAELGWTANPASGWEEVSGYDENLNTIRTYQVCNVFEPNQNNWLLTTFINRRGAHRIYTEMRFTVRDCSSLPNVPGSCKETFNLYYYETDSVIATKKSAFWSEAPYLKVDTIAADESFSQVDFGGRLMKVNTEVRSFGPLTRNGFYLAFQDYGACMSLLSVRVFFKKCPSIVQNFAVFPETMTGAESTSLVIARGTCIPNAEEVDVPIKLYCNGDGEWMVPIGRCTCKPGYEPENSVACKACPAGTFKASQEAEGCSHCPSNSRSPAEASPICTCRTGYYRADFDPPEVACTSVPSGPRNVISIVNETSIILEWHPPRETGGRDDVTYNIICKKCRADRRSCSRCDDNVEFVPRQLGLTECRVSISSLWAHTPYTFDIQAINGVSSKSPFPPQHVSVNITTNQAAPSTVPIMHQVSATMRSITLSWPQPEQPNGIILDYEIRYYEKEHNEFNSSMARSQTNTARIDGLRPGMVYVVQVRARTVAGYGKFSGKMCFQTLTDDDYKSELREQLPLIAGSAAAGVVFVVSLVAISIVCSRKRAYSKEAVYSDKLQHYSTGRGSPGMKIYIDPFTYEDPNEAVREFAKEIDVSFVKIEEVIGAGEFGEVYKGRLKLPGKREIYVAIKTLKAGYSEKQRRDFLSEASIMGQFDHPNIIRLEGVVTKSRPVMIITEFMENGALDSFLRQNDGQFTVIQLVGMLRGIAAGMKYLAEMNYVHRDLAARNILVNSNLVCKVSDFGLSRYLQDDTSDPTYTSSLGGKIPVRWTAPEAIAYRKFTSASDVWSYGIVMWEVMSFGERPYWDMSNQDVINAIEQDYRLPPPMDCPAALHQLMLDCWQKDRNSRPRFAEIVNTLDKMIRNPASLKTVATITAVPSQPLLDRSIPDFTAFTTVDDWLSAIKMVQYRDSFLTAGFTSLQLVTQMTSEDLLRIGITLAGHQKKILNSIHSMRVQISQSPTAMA

[2] = target: CDK1/Cyclin A (Homo sapiens) (UniProt P06493+P20248); assay: Inhibition of human CDK1/cyclin A using RB Protein as substrate at 1 uM in presence of 32P-ATP by Hotspot assay relative to control; values are per cent of control
[3] = target: Calcium/calmodulin-dependent protein kinase type II subunit beta (Homo sapiens) (UniProt Q13554); assay: Residual activity of human CAMK2b using KKALRRQETVDAL as substrate at 1 uM in presence of 32P-ATP by Hotspot assay relative to control
Calcium/calmodulin-dependent protein kinase type II subunit beta (Homo sapiens), sequence (Q13554 whole entry): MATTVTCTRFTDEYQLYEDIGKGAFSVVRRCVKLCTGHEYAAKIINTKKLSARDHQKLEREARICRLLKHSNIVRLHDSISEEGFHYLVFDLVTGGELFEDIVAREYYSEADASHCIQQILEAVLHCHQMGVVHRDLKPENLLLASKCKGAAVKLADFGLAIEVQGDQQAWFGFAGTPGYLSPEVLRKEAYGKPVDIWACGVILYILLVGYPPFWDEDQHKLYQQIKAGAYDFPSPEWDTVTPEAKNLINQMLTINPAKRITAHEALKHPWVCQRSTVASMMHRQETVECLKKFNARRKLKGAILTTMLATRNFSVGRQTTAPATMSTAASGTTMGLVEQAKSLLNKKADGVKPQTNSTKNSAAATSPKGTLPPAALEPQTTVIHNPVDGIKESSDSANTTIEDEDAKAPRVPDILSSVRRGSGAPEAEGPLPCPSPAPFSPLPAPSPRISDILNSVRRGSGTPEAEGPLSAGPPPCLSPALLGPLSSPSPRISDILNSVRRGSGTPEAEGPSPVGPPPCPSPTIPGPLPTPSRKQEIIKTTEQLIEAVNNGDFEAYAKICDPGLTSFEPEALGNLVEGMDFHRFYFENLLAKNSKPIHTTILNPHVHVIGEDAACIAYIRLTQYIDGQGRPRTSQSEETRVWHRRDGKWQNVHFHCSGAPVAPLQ

[4] = target: Activin receptor type-1-like (Homo sapiens) (UniProt P37023); assay: Inhibition of human ALK1/ACVRL1 using casein as substrate at 1 uM in presence of 32P-ATP by Hotspot assay relative to control; values are per cent of control
Activin receptor type-1-like (Homo sapiens), sequence (P37023 whole entry): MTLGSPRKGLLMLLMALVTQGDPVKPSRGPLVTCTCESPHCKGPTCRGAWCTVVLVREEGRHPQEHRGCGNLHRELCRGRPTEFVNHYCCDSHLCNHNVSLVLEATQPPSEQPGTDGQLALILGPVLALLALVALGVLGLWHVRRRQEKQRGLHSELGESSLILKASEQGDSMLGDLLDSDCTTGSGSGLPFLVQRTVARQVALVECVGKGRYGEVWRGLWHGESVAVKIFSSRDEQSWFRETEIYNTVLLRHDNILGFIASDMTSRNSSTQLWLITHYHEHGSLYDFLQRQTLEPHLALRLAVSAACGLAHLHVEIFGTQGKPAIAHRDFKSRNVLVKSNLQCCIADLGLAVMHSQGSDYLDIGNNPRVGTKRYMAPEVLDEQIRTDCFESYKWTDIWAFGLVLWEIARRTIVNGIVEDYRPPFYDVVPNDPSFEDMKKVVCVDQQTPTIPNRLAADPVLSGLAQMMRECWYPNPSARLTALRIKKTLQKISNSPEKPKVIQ

[5] = target: T2, Cytoplasmic tyrosine-protein kinase BMX (Homo sapiens) (UniProt P51813); assay: Inhibition of human BMX/ETK using poly[Glu:Tyr] (4:1) as substrate at 1 uM in presence of 32P-ATP by Hotspot assay relative to control; values are per cent of control
T2 sequence (whole entry): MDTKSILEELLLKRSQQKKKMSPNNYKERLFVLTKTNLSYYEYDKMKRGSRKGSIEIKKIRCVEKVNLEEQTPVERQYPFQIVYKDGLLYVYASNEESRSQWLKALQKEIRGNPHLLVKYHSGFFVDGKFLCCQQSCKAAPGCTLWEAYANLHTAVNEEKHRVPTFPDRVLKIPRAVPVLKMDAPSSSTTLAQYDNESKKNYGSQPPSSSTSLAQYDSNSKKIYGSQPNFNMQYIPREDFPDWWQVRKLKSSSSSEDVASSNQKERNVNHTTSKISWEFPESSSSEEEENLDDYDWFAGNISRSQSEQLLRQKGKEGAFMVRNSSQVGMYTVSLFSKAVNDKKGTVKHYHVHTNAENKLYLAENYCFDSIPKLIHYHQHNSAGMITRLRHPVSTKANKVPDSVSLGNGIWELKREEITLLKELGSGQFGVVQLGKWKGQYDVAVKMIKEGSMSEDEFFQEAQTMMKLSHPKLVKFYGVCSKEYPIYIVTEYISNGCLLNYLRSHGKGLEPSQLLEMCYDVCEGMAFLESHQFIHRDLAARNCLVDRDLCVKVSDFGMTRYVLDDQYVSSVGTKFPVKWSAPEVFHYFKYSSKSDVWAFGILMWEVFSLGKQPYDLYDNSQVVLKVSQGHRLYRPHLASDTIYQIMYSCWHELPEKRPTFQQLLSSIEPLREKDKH

[6] = target: G protein-coupled receptor kinase 5 (Homo sapiens) (UniProt P34947); assay: Residual activity of human GRK5 using casein as substrate at 1 uM in presence of 32P-ATP by Hotspot assay relative to control
G protein-coupled receptor kinase 5 (Homo sapiens), sequence (P34947 whole entry, looked up): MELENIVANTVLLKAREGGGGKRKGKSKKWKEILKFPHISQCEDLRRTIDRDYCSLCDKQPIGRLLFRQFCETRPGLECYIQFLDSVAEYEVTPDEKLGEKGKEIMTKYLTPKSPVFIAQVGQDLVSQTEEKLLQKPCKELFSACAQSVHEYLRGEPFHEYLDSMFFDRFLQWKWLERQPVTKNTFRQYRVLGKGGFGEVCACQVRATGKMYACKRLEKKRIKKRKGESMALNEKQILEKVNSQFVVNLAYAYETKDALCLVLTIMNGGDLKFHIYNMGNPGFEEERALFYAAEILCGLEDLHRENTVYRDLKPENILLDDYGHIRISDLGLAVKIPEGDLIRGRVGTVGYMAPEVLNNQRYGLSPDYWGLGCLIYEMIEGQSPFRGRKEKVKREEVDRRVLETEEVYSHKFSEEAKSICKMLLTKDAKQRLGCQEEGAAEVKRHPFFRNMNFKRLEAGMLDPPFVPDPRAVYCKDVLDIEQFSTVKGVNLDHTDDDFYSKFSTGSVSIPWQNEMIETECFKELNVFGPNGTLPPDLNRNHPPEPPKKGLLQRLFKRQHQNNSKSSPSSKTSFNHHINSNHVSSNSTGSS

[7] = target: Misshapen-like kinase 1 (Homo sapiens) (UniProt Q8N4C8); assay: Residual activity of human MINK/MINK1 using myelin basic protein as substrate at 1 uM in presence of 32P-ATP by Hotspot assay relative to control
[8] = target: Non-receptor tyrosine-protein kinase TYK2 (Homo sapiens) (UniProt P29597); assay: Inhibition of human TYK2 using KKSRGDYMTMQIG as substrate at 1 uM in presence of 32P-ATP by Hotspot assay relative to control; values are per cent of control
Non-receptor tyrosine-protein kinase TYK2 (Homo sapiens), sequence (P29597 whole entry): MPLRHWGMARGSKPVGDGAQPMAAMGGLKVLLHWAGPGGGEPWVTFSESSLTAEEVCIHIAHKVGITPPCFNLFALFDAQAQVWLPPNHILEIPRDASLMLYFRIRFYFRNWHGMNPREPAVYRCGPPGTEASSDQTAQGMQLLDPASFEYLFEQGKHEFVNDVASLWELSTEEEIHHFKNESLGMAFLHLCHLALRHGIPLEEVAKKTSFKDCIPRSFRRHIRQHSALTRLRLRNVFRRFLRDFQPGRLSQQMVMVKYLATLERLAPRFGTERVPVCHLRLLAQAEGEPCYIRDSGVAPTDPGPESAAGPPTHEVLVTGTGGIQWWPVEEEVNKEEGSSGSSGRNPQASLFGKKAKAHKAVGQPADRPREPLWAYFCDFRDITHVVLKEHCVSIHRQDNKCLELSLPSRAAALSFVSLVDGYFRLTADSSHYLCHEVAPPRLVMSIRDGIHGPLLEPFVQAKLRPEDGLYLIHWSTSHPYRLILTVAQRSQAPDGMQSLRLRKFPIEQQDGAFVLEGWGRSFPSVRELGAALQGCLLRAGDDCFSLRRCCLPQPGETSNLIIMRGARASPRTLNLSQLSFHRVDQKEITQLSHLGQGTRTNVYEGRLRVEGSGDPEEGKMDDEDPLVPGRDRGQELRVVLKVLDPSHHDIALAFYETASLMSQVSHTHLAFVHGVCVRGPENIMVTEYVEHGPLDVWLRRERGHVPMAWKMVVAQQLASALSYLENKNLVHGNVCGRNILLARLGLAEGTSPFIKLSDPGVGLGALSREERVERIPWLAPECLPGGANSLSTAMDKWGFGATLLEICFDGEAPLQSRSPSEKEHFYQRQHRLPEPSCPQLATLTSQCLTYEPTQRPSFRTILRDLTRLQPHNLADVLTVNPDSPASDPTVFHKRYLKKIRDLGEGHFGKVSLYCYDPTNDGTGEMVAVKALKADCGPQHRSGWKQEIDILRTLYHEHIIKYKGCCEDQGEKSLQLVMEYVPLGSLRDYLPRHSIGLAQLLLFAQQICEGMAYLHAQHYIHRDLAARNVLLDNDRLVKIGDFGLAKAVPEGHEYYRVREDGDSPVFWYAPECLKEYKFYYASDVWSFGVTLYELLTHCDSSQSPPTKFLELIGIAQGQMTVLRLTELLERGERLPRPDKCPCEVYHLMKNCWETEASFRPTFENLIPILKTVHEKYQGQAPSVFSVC

[9] = target: Serine/threonine-protein kinase WNK3 (Homo sapiens) (UniProt Q9BYP7); assay: Inhibition of human WNK3 using myelin basic protein as substrate at 1 uM in presence of 32P-ATP by Hotspot assay relative to control; values are per cent of control
Serine/threonine-protein kinase WNK3 (Homo sapiens), sequence (Q9BYP7 whole entry): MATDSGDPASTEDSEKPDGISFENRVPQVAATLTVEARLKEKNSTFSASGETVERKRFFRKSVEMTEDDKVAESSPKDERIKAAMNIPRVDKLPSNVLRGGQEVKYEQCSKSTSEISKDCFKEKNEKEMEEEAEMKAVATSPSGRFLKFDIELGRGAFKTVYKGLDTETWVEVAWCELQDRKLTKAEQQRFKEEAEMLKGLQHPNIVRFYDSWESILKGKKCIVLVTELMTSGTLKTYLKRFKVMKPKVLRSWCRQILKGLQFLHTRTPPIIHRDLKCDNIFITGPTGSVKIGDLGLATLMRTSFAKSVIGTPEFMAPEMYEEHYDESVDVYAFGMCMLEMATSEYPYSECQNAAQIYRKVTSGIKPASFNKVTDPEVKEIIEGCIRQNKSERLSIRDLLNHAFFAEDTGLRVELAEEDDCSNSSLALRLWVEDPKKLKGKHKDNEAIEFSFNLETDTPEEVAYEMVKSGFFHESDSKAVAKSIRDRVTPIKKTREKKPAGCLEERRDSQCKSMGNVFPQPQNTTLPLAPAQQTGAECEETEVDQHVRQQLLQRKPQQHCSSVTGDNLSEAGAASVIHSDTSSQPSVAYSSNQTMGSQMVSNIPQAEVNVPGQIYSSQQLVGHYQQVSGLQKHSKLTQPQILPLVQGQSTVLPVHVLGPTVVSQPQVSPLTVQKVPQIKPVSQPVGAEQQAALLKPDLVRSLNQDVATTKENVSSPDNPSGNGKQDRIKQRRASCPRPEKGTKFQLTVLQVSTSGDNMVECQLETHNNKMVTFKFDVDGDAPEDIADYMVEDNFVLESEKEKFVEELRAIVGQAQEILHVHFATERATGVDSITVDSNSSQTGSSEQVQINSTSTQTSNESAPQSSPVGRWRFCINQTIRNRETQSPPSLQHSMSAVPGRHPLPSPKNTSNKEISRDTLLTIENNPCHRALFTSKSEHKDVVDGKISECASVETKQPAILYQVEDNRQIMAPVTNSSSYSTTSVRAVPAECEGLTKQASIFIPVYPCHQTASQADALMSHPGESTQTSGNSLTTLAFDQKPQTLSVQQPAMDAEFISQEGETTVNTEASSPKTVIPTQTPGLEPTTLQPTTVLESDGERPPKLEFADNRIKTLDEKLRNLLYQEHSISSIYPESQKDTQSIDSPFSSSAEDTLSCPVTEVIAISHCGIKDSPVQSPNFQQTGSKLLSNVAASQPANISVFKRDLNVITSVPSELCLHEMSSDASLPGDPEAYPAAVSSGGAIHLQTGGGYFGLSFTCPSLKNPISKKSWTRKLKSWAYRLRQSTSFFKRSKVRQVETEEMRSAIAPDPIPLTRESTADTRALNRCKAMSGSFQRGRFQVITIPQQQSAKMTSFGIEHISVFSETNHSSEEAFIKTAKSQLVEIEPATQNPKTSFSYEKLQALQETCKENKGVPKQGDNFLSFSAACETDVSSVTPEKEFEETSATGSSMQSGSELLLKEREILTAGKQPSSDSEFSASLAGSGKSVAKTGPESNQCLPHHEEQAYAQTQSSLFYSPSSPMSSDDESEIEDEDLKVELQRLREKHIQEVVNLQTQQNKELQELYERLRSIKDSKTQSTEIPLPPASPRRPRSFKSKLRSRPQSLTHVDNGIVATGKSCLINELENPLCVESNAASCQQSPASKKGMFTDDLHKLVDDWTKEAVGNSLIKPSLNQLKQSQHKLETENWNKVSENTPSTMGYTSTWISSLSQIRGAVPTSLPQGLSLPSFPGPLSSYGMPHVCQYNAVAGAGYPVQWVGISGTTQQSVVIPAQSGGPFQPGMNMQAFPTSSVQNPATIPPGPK

[10] = species: Homo sapiens; assay: Inhibition of human PKA using LCGRTGRRNSI as substrate at 1 uM in presence of 32P-ATP by Hotspot assay relative to control; values are per cent of control
[11] = species: Homo sapiens; assay: Inhibition of human CDK7/cyclin H using myelin basic protein as substrate at 1 uM in presence of 32P-ATP by Hotspot assay relative to control; values are per cent of control

`CC(C)S(=O)(=O)c1ccc2nccc(Nc3ccc4scnc4c3)c2c1` gave a residual activity [1] of 79%, a residual activity [2] of 88.6% and a residual activity [3] of 104%. It also gave a residual activity [4] of 102%, a residual activity [5] of 69.9% and a residual activity [6] of 97.4%. For the same compound, the residual activity [7] was 94.6%, the residual activity [8] was 101% and the residual activity [9] was 104%. For the same compound, the residual activity [10] was 97.7% and the residual activity [11] was 97.7%.
Work on `Cc1cc(-c2cnc(N)c3c(-c4ccc5scnc5c4)csc23)n(C)n1` yielded a residual activity [1] of 36.8%, a residual activity [2] of 98.9% and a residual activity [3] of 100%. It also gave a residual activity [4] of 93.9%, a residual activity [5] of 91.1% and a residual activity [6] of 96.5%. For the same compound, the residual activity [7] was 19.5%, the residual activity [8] was 99.4% and the residual activity [9] was 83%. The residual activity [10] was 94.9% and the residual activity [11] was 94.2%.
In the case of `CNC(=O)c1ccc2c(c1)ncn2-c1ccc(CC(=O)OC(C)(C)C)cc1`, the residual activity [1] is reported as 104%, the residual activity [2] is reported as 94.5% and the residual activity [3] is reported as 98.3%. The residual activity [4] was 95.4%, the residual activity [5] was 83.5% and the residual activity [6] was 94.7%. For the same compound, the residual activity [7] was 91.8%, the residual activity [8] was 103% and the residual activity [9] was 99.9%. It also gave a residual activity [10] of 101% and a residual activity [11] of 96.2%.
